Measurements as given in patent US11518981B2, “Methods of enhancing engraftment activity of hematopoietic stem cells” (CHILDREN'S HOSPITAL MEDICAL CENTER, priority 2017, dated 2022).

Experiments:
CD34^+38^−90^+ HSCs [1] = assay: ROS measurement (MITOSOX / CM-H2DCFDA) in HSCs; format: cell-based, human; conditions: MITOSOX in CD34^+38^−90^+ cells
Experimental: Freshly isolated CD34^+ cells were used, wherever possible, and especially for 0 h controls. In some experiments cryopreserved CD34^+ cells were thawed for 4 hrs in IMDM containing cytokines, then washed and used for experiments. CD34^+ cells were transduced in X-VIVO 10™ (Lonza) medium supplemented with 2% human serum albumin (Baxter), recombinant human Flt-3 ligand (Flt3-L; 200 ng/mL), stem cell factor (SCF; 300 ng/mL), thrombopoietin (TPO; 100 ng/mL) (all cytokines obtained from PeproTech), and penicillin-streptomycin (ThermoFisher Scientific) on non-tissue culture treated plates coated with retronectin (4 μg/cm2, CH-296, Takara Bio Inc.). […]
PE-Cyanine 7 or APC-EFLUOR® 780, APC- or PE-conjugated antibodies directed to human CD34 (BD Biosciences 560710 or 555824), CD38 (eBiosciences, San Diego, Calif. 47-0389-42), CD90 (BioLegend 328120), CD45RA (eBiosciences 17-0458-42), CD49f (BD Biosciences 555736), CD45 (BD 55485 or Biolegend 304026), CD33 (eBiosciences 25-0338-42), CD19 (BD Biosciences 557791), or CD3 (BD Biosciences 555340). […] Total ROS and mitochondrial specific ROS were detected using 10 μM CM-H2DCFDA (ThermoFisher Scientific C6827) and 5 μM MITOSOX™ Red (Red Mitochondrial Superoxide Indicator) (ThermoFisher Scientific M36008) respectively, following manufacturer's instructions.

[2] = tested on: human MPB derived CD34^+ cells; assay: long term repopulating potential (LTRP) in secondary transplanted (2 T) NSG mice; format: in vivo; conditions: CD34^+ cells cultured 36-42 h and 72-96 h; 6 weeks post 2 T
Text: NOD.Cg-Prkdcscid Il2rgtm1Wjl/SzJ (NSG) mice were purchased from The Jackson Laboratory (Bar Harbor, Me.). All animals were bred and maintained in a specific pathogen-free environment and all experiments were approved by the Institutional Animal Care and Use (IACUC) Committee. Male and female NSG mice aged 8 to 14 weeks old were fed doxycycline chow (TestDiet; Modified Prolab RMH-1500 with 0.0625% doxycycline) a week prior to, during and for 2 weeks post irradiation. Human engraftment was analyzed in bone marrow (BM), via BM aspirates performed at 6 and 12 weeks from left and right femurs. After sacrifice at 24 weeks, marrow from all of the primary mice (1 T) was harvested. Peripheral blood analysis was also performed in some experiments. Secondary transplants (2 T) were performed after mouse CD45^+ cells were depleted from BM harvested from each 1 T mouse separately, using Biotin Rat Anti-Mouse CD45 (BD Biosciences 553078) and Streptavidin Particles Plus-DM (BD Biosciences 557812) and injected into one irradiated (280 cGy) secondary NSG mouse. For calculating competitive repopulating units (CRU) from limiting dilution transplantation, the L-CALC^TM software (Stem Cell Technologies) was used. All of the mice used for this study were randomly assigned to a treatment group. No animals were excluded from the analysis.

CD34^+ cells = assay: total CD34^+ cell number and viability (trypan blue); format: cell-based, human; conditions: ex vivo culture with/without p38i
Experimental: Freshly isolated CD34^+ cells were used, wherever possible, and especially for 0 h controls. In some experiments cryopreserved CD34^+ cells were thawed for 4 hrs in IMDM containing cytokines, then washed and used for experiments. CD34^+ cells were transduced in X-VIVO 10™ (Lonza) medium supplemented with 2% human serum albumin (Baxter), recombinant human Flt-3 ligand (Flt3-L; 200 ng/mL), stem cell factor (SCF; 300 ng/mL), thrombopoietin (TPO; 100 ng/mL) (all cytokines obtained from PeproTech), and penicillin-streptomycin (ThermoFisher Scientific) on non-tissue culture treated plates coated with retronectin (4 μg/cm2, CH-296, Takara Bio Inc.). For LV transduction, CD34^+ cells (2-5×10^6/mL) were pre-stimulated for 4-8 hours and transduced twice with lentivirus vector (LV) maintaining the vector concentration between 5×10^7 to 1×10^8 infectious unit (IU) per mL of media volume, 12-14 hours apart. Cells were kept in culture for a total of either 18-24 hours, 36-42 hours or 72-96 hours. For RV transduction, human CD34^+ cells were pre-stimulated for ˜2 days (42-48 hours) hours at a cell density of 3×10^5 cells/ml. Retronectin coated tissue culture flasks or plates were preloaded at room temperature with GALV pseudotyped RV twice for one hour each. The vector supernatant was removed and the cells were loaded into the RV loaded retronectin coated flasks. […]

[3] = tested on: CD34^+38^−90^+45RA^−49f^+ HSCs; assay: phenotypic HSC population by flow cytometry; format: cell-based, human
Text: PE-Cyanine 7 or APC-EFLUOR® 780, APC- or PE-conjugated antibodies directed to human CD34 (BD Biosciences 560710 or 555824), CD38 (eBiosciences, San Diego, Calif. 47-0389-42), CD90 (BioLegend 328120), CD45RA (eBiosciences 17-0458-42), CD49f (BD Biosciences 555736), CD45 (BD 55485 or Biolegend 304026), CD33 (eBiosciences 25-0338-42), CD19 (BD Biosciences 557791), or CD3 (BD Biosciences 555340). Cells (˜5×10^5−1×10^6) were used to label with antibodies as per manufacturer instructions with the appropriate isotype controls. For phospho-flow, primary antibodies phospho-p38 (Thr180/Tyr182; 4092S), phospho-p44/42 MAPK (ERK ½) (Thr202/Tyr204; 4094S), and phospho-JNK (Thr183-Tyr185 PE conjugate; 5755S) (all from Cell Signaling) were used for staining overnight followed by wash and secondary antibody stain including Goat anti-Rabbit IgG (H+L) or Goat anti-Rabbit IgG (H+L) or Pacific Blue (P-10994) antibody. Apoptosis assay was performed using PE Annexin V Apoptosis Detection Kit (BD Biosciences 559763) according to the manufacturer's instructions. Total ROS and mitochondrial specific ROS were detected using 10 μM CM-H2DCFDA (ThermoFisher Scientific C6827) and 5 μM MITOSOX™ Red (Red Mitochondrial Superoxide Indicator) (ThermoFisher Scientific M36008) respectively, following manufacturer's instructions.

γH2AX = assay: DNA damage response (γH2AX, 53BP1) by immunofluorescence and flow cytometry; format: cell-based, human
Experimental: For EdU incorporation assay, cells were incubated with 10 μM EdU throughout the culture period and the CLICK-IT® Plus EdU Pacific Blue Flow Cytometry Assay Kit (ThermoFisher Scientific C10636) was used for staining. […] Samples were run through a FACSCANTOTM, FORTESSATM, or LSR 2 flow cytometers (BD Biosciences), and the data was analyzed by […] software (BD). […] II cell sorter. FACS sorted CD34+38-90+ cells were fixed in 2% paraformaldehyde and permeabilized using 0.1% […] polyether alcohol, Sigma-Aldrich). […] Cells were counterstained and mounted with […]® antifade mounting medium with DAPI (H-1200 Vector Laboratories). Images were obtained using a Nikon 90i upright microscope.

CD34^+38^−90^+ HSCs [4] = assay: cell cycle analysis (Ki-67 / Hoechst) of HSCs; format: cell-based, human
[5] = before the first HSC division in vitro (24 h)

With Cc1ccc(-n2nc(C(C)(C)C)cc2NC(=O)Nc2ccc(OCCN3CCOCC3)c3ccccc23)cc1 [p38i, 1-[5-tert-butyl-2-(4-methylphenyl)pyrazol-3-yl]-3-[4-(2-morpholin-4-ylethoxy)naphthalen-1-yl]urea] the “ROS levels in the HSC compartment” value (CD34^+38^−90^+ HSCs [1]) was “no difference”, the “LTRP in 2 T mice” value [2] was “restored the LTRP in 2 T mice to levels seen with unmanipulated HSPCs” and the “total number of CD34^+ cells, or viability in vitro” value (CD34^+ cells) was “no effect”. For the same compound, the “increased phenotypic HSC population” value ([3]; other than prolonged cultures) was “similar”, the “phenotypic HSCs” value ([3]; prolonged cultures) was “higher” and the “γH2AX levels in the transduced HSCs” value (γH2AX; 72 h, RV transduced cycling HSCs) was “significantly reduced”. For the same compound, the “percentage of γH2AX^+ cells” value (γH2AX; flow cytometry, 36-42 h and 72-96 h groups) was “significantly reduced”, the “γH2AX MFI and number of γH2AX positive HSC” value (γH2AX; flow cytometry, 24 h) was “returned to levels seen in unmanipulated HSCs” and the “percentage of cells in the different phases of cell cycle” value (CD34^+38^−90^+ HSCs [4]; HSCs transduced when actively cycling (RV)) was “no difference”. The “effect on increasing the G0 population” value (CD34^+38^−90^+ HSCs [4]; after HSCs progressed through cell cycle) was “lost”, the “proportion of HSCs in the G0 quiescent phase” value (CD34^+38^−90^+ HSCs [4]; [5]) was “significantly increased” and the “proportion of HSCs in the S-G2M phase” value (CD34^+38^−90^+ HSCs [4]; [5]) was “decreased”.
